In the assay the target is T1, CCXCKR2 receptor (Homo sapiens, UniProt P25106).
T1 construct: The compounds were combined with mammary gland cells expressing the CCXCKR2 receptor in the presence of the ^125I-labeled chemokine; host or cells: MCF-7 (endogenous receptor) and/or MDA-MB-435S stably transfected with pcDNA3.1(+)-hRDC1
The experiment in a line: Displacement of 125I-labeled SDF-1 from the CCXCKR2 receptor (radioligand binding, determination of IC50 values). The conditions noted are these: concentration displacing at least 50% of 125I SDF-1 from CCXCKR2; MCF-7 and/or CCXCKR2 transfected MDA-MB-435S cells; 3 hr at 4° C. How it is done:
The ability of the compounds to displace the labeled chemokine from the CCXCKR2 receptor sites at multiple concentrations was then determined with the screening process.
Compounds that were deemed effective modulators were able to displace at least 50% of the SDF-1 from the CCXCKR2 receptor at concentrations at or below 2.1 micromolar (μM), as represented by the notation (+) for certain exemplary compounds shown in Table B below, and more preferably at concentrations at or below 700 nanomolar (nM) (++). At present, especially preferred compounds can displace at least 50% of the SDF-1 from the CCXCKR2 receptor at concentrations at or below 500 nM (+++). As stated above, Exemplary compounds that met these criteria are reproduced in Table B below. All compounds were prepared as described in the Examples above, or by related methods substituting readily available starting materials.
Reagents and Cells. ^125I-labeled SDF-1 was purchased from Perkin-Elmer Life Sciences, Inc. (Boston, Mass.). The MCF-7 (adenocarcinoma; mammary gland) cell line was obtained from the American Type Culture Collection (Manassas, Va.) or and was cultured in DMEM (Mediatech, Herndon, Va.) supplemented with 10% fetal bovine serum (FBS) (HyClone Logan, Utah) and bovine insulin (0.01 mg/mL) (Sigma, St. Louis, Mo.) at 37° C. in a humidified incubator at a 5% CO2/air mixture. CCXCKR2 transfected MDA-MB-435S were produced as described below. MDA-MB-435S human breast cancer line, was purchased from ATCC, and cultured in DMEM/10% FBS medium. The complete coding sequence of the gene encoding CCXCKR2 (a.k.a.CXCR^7, hRDC1), was isolated from MCF-7 cells using μMACs mRNA isolation kit (Miltenyi Biotec, Auburn, Calif.). DNA contamination was removed by DNase digestion via RNeasy columns (Qiagen, Inc., Valencia, Calif.) and cDNA was generated using GeneAmp RNA PCR Core Kit (Applied Biosystems, Foster City, Calif.). PCR of cDNA samples was performed using Taq PCR Master Mix kit (Qiagen, Inc.) and hRDC1 primers harboring 5′ and 3′ Not I sites
Binding Analysis. Target compounds were tested to determine their ability to bind with CCXCKR2 sites on MCF-7 and/or MDA-MB-435S cells. Efficiency-maximized radioligand binding using filtration protocols as described in Dairaghi D J, et al., HHV8-encoded vMIP-I selectively engages chemokine receptor CCR5. Agonist and antagonist profiles of viral chemokines., J. Biol. Chem. 1999 Jul. 30; 274(31): 21569-74 and Gosling J, et al., Cutting edge: identification of a novel chemokine receptor that binds dendritic cell- and T cell-active chemokines including ELC, SLC, and TECK., J. Immunol. 2000 Mar. 15; 164(6):2851-6 was used.
In these assays, MCF-7 and/or MDA-MB-435S cells were interrogated with the target compounds and the ability of these compounds to displace ^125I radiolabeled SDF-1 was assessed using the protocol described in Dairaghi and Gosling. The target compounds were added to the plate to the indicated concentration and were then incubated with cells followed by the addition of radiolabeled chemokine (^125I SDF-1) for 3 hr at 4° C. in the following binding medium (25 mM HEPES, 140 mM NaCl, 1 mM CaCl2, 5 mM MgCl2 and 0.2% bovine serum albumin, adjusted to pH 7.1). All assays were then incubated for 3 hrs at 4° C. with gentle agitation. Following incubation in all binding assays, reactions were aspirated onto PEI-treated GF/B glass filters (Packard) using a cell harvester (Packard) and washed twice (25 mM HEPES, 500 mM NaCl, 1 mM CaCl2, 5 mM MgCl2, adjusted to pH 7.1). Scintillant (MicroScint 10, Packard) was added to the wells, and the filters were counted in a Packard Topcount scintillation counter. Data were analyzed and plotted using Prism (GraphPad Prism version 3.0a for Macintosh, GraphPad Software, www.graphpad.com).
(In general: In a radioligand displacement assay an active substance lowers the binding of a labelled ligand.)

Structures are written as SMILES. pIC50: −log10 of the molar value. Structures can show the parent of a compound that is named as a salt.

T1 sequence (P25106 whole entry): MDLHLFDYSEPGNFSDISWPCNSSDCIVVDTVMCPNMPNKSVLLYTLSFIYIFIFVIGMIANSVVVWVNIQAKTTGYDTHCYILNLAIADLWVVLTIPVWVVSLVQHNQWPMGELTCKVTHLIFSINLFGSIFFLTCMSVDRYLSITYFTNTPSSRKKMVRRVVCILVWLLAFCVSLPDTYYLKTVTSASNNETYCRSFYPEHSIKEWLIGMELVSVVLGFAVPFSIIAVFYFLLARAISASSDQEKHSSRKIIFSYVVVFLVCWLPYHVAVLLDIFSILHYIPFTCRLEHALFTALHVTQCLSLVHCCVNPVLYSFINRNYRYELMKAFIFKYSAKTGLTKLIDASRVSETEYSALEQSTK

In the case of `COc1cc(C(=O)N(C/C(C)=C/c2ccc(F)cc2F)C[C@@H]2CCCN2CC2(N(C)C)CCCC2)ccc1OC(F)F` (stereo in doubt) [Compound 15, 4-Difluoromethoxy-N-[3-(2,4-difluoro-phenyl)-2-methyl-allyl]-N-[1-(1-dimethylamino-cyclopentylmethyl)-pyrrolidin-2-ylmethyl]-3-methoxy-benzamide], the pIC50 (as a rule, the IC50 on a negative log10 scale, so that one unit is a factor of ten) is at least 6.30.

As for `COc1cc(C(=O)N(C/C(C)=C/c2ccccc2)C[C@@H]2C[C@@H]3CCCC[C@@H]3N2)cc2c1OC(C)(C)O2` [Compound 1, 7-Methoxy-2,2-dimethyl-benzo[1,3]dioxole-5-carboxylic acid (2-methyl-3-phenyl-allyl)-[(2S,6S,7S)-1-(octahydro-indol-2-yl)methyl]-amide], the pIC50 was at least 6.30.

`COc1cc(C(=O)N(C/C(C)=C/c2ccccc2)C[C@@H]2C[C@@H]3CCC[C@@H]3N2)cc2c1OC(C)(C)O2` [Compound 2, 7-Methoxy-2,2-dimethyl-benzo[1,3]dioxole-5-carboxylic acid (2-methyl-3-phenyl-allyl)-[(2S,5S,6S)-1-(octahydro-cyclopenta[b]pyrrol-2-yl)methyl]-amide] showed a pIC50 of at least 6.30.

For `COc1cc(C(=O)N(C/C(C)=C/c2ccc(F)cc2F)C[C@@H]2C[C@@H]3CCCC[C@@H]3N2)ccc1OC(F)F` [Compound 3, 4-Difluoromethoxy-N-[(E)-3-(2,4-difluoro-phenyl)-2-methyl-allyl]-3-methoxy-N-[(2S,3aS,7aS)-1-(octahydro-indol-2-yl)methyl]-benzamide], the pIC50 is at least 6.30.

On to `COc1cc(C(=O)N(C/C(C)=C/c2ccc(F)cc2F)C[C@@H]2C[C@@H]3CCCC[C@@H]3N2)cc2c1OC(C)(C)O2` [Compound 4, 7-Methoxy-2,2-dimethyl-benzo[1,3]dioxole-5-carboxylic acid [(E)-3-(2,4-difluoro-phenyl)-2-methyl-allyl]-[(2S,3aS,7aS)-1-(octahydro-indol-2-yl)methyl]-amide], for which the pIC50 is at least 6.30.

`COc1ccc(C(=O)N(C/C(C)=C/c2ccc(F)cc2F)C[C@@H]2C[C@@H]3CCCC[C@@H]3N2)cc1OC` [Compound 5, N-[(E)-3-(2,4-Difluoro-phenyl)-2-methyl-allyl]-3,4-dimethoxy-N-[(2S,3aS,7aS)-1-(octahydro-indol-2-yl)methyl]-benzamide] had a pIC50 of at least 6.30.

Regarding `COc1cc(C(=O)N(C/C(C)=C/c2ccccc2)CC2CCCN2C[C@H]2CC[C@@H](NC(C)C)CC2)cc2c1OC(C)(C)O2` (stereo partly drawn) [Compound 6, Methoxy-2,2-dimethyl-benzo[1,3]dioxole-5-carboxylic acid [(S)-1-(4-isopropylamino-cyclohexylmethyl)-pyrrolidin-2-ylmethyl]-((E)-2-methyl-3-phenyl-allyl)-amide], the pIC50 was at least 6.30.

Compound `COc1ccc(C(=O)N(C/C(C)=C/c2ccc(F)cc2F)C[C@@H]2CCCN2C[C@H]2CC[C@@H](N)C2)cc1OC` [Compound 7, N-[(S)-1-((1S,3R)-3-Amino-cyclopentylmethyl)-pyrrolidin-2-ylmethyl]-N-[(E)-3-(2,4-difluoro-phenyl)-2-methyl-allyl]-3,4-dimethoxy-benzamide] had a pIC50 of at least 6.30.

Turning to `COc1ccc(C(=O)N(C/C(C)=C/c2ccc(F)cc2F)C[C@@H]2CCCN2C[C@H]2CC[C@H](NS(C)(=O)=O)CC2)cc1OC` [Compound 9, N-(S)-[(E)-3-(2,4-Difluoro-phenyl)-2-methyl-allyl]-N-[(S)-1-(4-methanesulfonylamino-cyclohexylmethyl)-pyrrolidin-2-ylmethyl]-3,4-dimethoxy-benzamide], the pIC50 was at least 6.30.

`COc1ccc(C(=O)N(C/C(C)=C/c2ccc(F)cc2F)C[C@@H]2CCCN2CC2CCC(N)CC2)cc1OC` (stereo partly drawn) [Compound 10, N-[(S)-1-(4-Amino-cyclohexylmethyl)-pyrrolidin-2-ylmethyl]-N-[(E)-3-(2,4-difluoro-phenyl)-2-methyl-allyl]-3,4-dimethoxy-benzamide] had a pIC50 of at least 6.30.

`COc1cc(C(=O)N(C/C(C)=C/c2ccc(F)cc2F)C[C@@H]2CCCN2C[C@H]2CC[C@@H](NS(C)(=O)=O)CC2)ccc1OC(F)F` [Compound 11]: the pIC50 is at least 6.30.

As for `COc1ccc(C(=O)N(C/C(C)=C/c2ccc(F)cc2F)C[C@@H]2CCCN2C[C@H]2CC[C@@H](N)CC2)cc1OC` [Compound 13, N-[1-(4-amino-cyclohexylmethyl)-pyrrolidin-2-ylmethyl]-N-[3-(2,4-difluoro-phenyl)-2-methyl-allyl]-3,4-dimethoxy-benzamide], the pIC50 was at least 6.30.

As to `COc1cc(C(=O)N(C/C(C)=C/c2ccc(F)cc2F)C[C@H]2CCCN2C[C@H]2CC[C@@H](N)CC2)ccc1OC(F)F` [Compound 14], the pIC50 is at least 6.30.

For the compound `COc1cc(C(=O)N(C/C(C)=C/c2ccc(F)cc2F)CC2CCCN2CC2(N)CCCC2)ccc1OC(F)F` (stereo not drawn) [Compound 16, N-[1-(1-Amino-cyclopentylmethyl)-pyrrolidin-2ylmethyl]-4-difluoromethoxy-N-[3-(2,4-difluoro-phenyl)-2-methyl-allyl]-3-methoxy-benzamide], the pIC50 is at least 6.15.

In turn, `COc1cc(C(=O)N(C/C(C)=C/c2ccc(F)cc2F)CC2CCCN2CC2(NS(C)(=O)=O)CCCC2)ccc1OC(F)F` (stereo not drawn) [Compound 17] gave a pIC50 of at least 6.30.

In the case of `COc1cc(C(=O)N(C/C(C)=C/c2ccc(F)cc2F)Cc2nccn2C)ccc1OC(F)F` [Compound 18, 4-difluoromethoxy-N-[3-(2,4-difluoro-phenyl)-2-methyl-allyl]-3-methoxy-N-(1-methyl-1H-imidazol-2-ylmethyl)-benzamide], the pIC50 was at least 5.68.

`COc1ccc(C(=O)N(CC2=NCCN2)C/C(C)=C/c2ccc(F)cc2F)cc1OC` [Compound 19, N-[(E)-3-(2,4-Difluoro-phenyl)-2-methyl-allyl]-N-(4,5-dihydro-1 H-imidazol-2-ylmethyl)-3,4-dimethoxy-benzamide hydrochloride] had a pIC50 of at least 6.30.

`COc1ccc(C(=O)N(C/C(C)=C/c2ccc(F)cc2F)CC2CCC3COCCN32)cc1OC` (stereo not drawn) [Compound 20]: the pIC50 was at least 5.68.
